Measured values: the NIST ThermoML archive (doi:10.1021/je060148j)
Numbers after ± are expanded uncertainties.

Settings: Liquid, Closed cell (Static) method

COC [dimethyl ether]
Settings	vapor or sublimation pressure [kPa]
219.15 K	22.3 ± 2
221.13 K	25.2 ± 2
223.11 K	28.3 ± 2
224.88 K	31.5 ± 2
226.88 K	35.4 ± 2
228.85 K	39.5 ± 2
230.86 K	43.9 ± 2
232.86 K	48.7 ± 2
234.85 K	54.1 ± 2
236.85 K	59.8 ± 2
239.14 K	66.3 ± 2
241.14 K	73.2 ± 2
244.14 K	84 ± 2
247.13 K	96.1 ± 2
249.13 K	104.9 ± 2
251.14 K	114.3 ± 2
255.13 K	135.1 ± 2
257.12 K	146.6 ± 2
259.14 K	159 ± 2
261.13 K	171.8 ± 2
263.13 K	185.6 ± 2
265.13 K	199.8 ± 2
267.13 K	215.5 ± 2.1
269.13 K	231.8 ± 2.1
271.13 K	248.9 ± 2.1
273.13 K	266.8 ± 2.1
275.04 K	285.1 ± 2.1
277.02 K	305 ± 2.1
279.02 K	326.4 ± 2.1
281.02 K	348.8 ± 2.1
283.02 K	372.3 ± 2.1
285.01 K	397 ± 2.1
287 K	422.8 ± 2.2
288.99 K	449.8 ± 2.2
290.99 K	478.4 ± 2.2
293.08 K	508.9 ± 2.2
295.07 K	540 ± 2.2
297.07 K	573 ± 2.3
299.08 K	606.9 ± 2.3
301.11 K	643.1 ± 2.3
303.08 K	680.2 ± 2.4
305.07 K	718.4 ± 2.4
307.07 K	758.8 ± 2.4
309.06 K	800.7 ± 2.5
311.07 K	844.2 ± 2.5
313.06 K	889.5 ± 2.5
315.06 K	936.6 ± 2.6
317.04 K	985.3 ± 2.6
319.03 K	1036 ± 2.7
321.03 K	1088.7 ± 2.8
323.02 K	1143.3 ± 2.8
325.02 K	1200.6 ± 2.9
327.13 K	1262.3 ± 2.9
329.02 K	1319.9 ± 3
331.11 K	1385.3 ± 3.1
333.11 K	1450.6 ± 3.2
335.11 K	1518.8 ± 3.3
337.1 K	1588.4 ± 3.3
339.1 K	1660.3 ± 3.4
341.08 K	1733.3 ± 3.5
343.09 K	1811.3 ± 3.6
345.09 K	1891.2 ± 3.7
347.08 K	1972.8 ± 3.8
349.08 K	2057.4 ± 4
351.07 K	2144.3 ± 4.1
353.05 K	2232.7 ± 4.2
355.05 K	2326 ± 4.3
357.05 K	2421.9 ± 4.4
359.05 K	2520.3 ± 4.6
361.04 K	2621.5 ± 4.7
